T1: caspase-9 activation by the soluble Apaf-1 fragment (Homo sapiens, UniProt O14727)
T1 construct: Leu-Glu-His6 (C); made in house; host or cells: Escherichia coli BL21(DE3), pET29 (both proteins)
T1 sequence (O14727 1-591): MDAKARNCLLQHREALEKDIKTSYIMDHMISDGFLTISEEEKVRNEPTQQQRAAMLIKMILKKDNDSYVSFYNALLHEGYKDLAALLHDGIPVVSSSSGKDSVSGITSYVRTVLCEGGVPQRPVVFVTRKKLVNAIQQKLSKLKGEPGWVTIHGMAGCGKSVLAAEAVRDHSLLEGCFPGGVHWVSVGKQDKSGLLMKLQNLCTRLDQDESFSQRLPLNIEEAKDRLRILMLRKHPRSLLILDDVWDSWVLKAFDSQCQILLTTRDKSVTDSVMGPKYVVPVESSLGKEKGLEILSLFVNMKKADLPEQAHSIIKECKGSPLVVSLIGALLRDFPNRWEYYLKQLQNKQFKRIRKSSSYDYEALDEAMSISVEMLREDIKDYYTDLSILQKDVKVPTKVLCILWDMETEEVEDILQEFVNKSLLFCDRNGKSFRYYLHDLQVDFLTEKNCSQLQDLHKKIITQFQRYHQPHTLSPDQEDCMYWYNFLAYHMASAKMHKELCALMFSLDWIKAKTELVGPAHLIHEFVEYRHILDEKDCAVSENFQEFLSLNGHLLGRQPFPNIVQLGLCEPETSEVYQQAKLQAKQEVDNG
T1 sequence (P55211 1-315 partner limits assumed): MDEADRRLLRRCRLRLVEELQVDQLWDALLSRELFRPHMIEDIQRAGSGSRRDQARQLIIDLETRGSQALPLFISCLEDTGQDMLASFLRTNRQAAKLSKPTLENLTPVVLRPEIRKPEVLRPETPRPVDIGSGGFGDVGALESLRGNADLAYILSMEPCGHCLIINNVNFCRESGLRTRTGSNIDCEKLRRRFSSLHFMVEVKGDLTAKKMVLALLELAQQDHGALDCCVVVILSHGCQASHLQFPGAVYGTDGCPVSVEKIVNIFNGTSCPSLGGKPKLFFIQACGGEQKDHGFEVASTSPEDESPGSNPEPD
T1 sequence (P55211 331-416 partner limits assumed): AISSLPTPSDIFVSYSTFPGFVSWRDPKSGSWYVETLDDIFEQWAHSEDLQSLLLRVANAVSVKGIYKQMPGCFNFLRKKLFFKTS


Assays:
[1] = target: T1, caspase-9 activation by the soluble Apaf-1 fragment; test: Caspase-9 activation assay (fluorogenic, LEHD-AMC); format: biochemical; settings: for Apaf-1-mediated caspase-9 activation by nucleotide with EDTA (hydrolysis blocked): 1 millimolar EDTA; for Apaf-1-mediated caspase-9 activation by nucleotide with EDTA (hydrolysis blocked) / Apaf-1-mediated caspase-9 activation by nucleotide: FIG. 6B/6C; for Apaf-1-mediated caspase-9 activation by nucleotide: Apaf-1 2 micromolar, caspase-9 0.2 micromolar, no EDTA
Experimental: A fluorogenic assay was developed to monitor caspase-9 activation by the soluble Apaf-1 fragment. […] Then, caspase-9 and Apaf-1 were added to a final volume of 200 microliter and final concentrations of 0.2 micromolar and 2 micromolar, respectively. After incubation for 5 minutes at room temperature, the caspase-9 substrate LEHD-AMC (a tetrapeptide coupled to 7-amino […]) was added to the reaction at a final concentration of 200 micromolar. The conversion of the fluorogenic substrate was then measured using a Hitachi F2500 fluorescence spectrophotometer with an excitation wavelength of 380 nanometers and a fluorescence detection wavelength of 440 nanometers.

[2] = format: physicochemical, E. coli
Experimental: Preferably, solubility of the fragment is assessed in a lysate of a bacterial culture used to produce the fragment at a concentration of at least 1 milligram per liter of bacterial culture.
All constructs for protein expression were generated using a standard PCR-based cloning strategy, and the identity of individual clones was verified by double-stranded plasmid sequencing. A soluble Apaf-1 fragment (residues 1-591, sequence (SEQ ID NO: 1) shown in FIG. 1) was over-expressed in Escherichia coli strain BL21(DE3) using plasmid vector pET29 having the nucleotide sequence described by Jiang et al. (2000, J. Biol. Chem. 275:31199-31203) operatively ligated therein. The coding sequence included an additional sequence encoding eight amino acid residues at its carboxy-terminal end (i.e., linked to residue 591 in the translated protein). These residues (Leu-Glu-His6) included a nickel-binding hexa-histidine sequence used for metal affinity chromatographic purification of the expressed protein. Soluble Apaf-1 was purified from the cell lysate using a Ni-NTA (nitrilotriacetic acid-ligated nickel; Qiagen) chromatography column. Dithiothreitol (DTT) and ethylenediamine tetraacetic acid (EDTA) were added to the eluted fraction in final concentrations of 5 millimolar each. After incubation for 30 minutes on ice, the protein solution was applied to an anion-exchange column (Source-15Q, Pharmacia) for further purification.

Row | Molecule | Apaf-1-mediated caspase-9 activation by nucleotide with EDTA (hydrolysis blocked) [1] | Apaf-1-mediated caspase-9 activation by nucleotide [1] | Solubility [2] | also measured
1 | Nc1nc(Cl)nc2c1ncn2[C@H]1C[C@H](O)[C@@H](COP(=O)(O)OP(=O)(O)OP(=O)(O)O)O1 [Fragment 2CdATP] | loss of this response | potent activator for caspase-9 activation |  | optimal concentration for caspase-9 activation [1]: approximately 100 micromolar
2 | Nc1ncnc2c1ncn2[C@H]1C[C@H](O)[C@@H](COP(=O)(O)OP(=O)(O)OP(=O)(O)O)O1 [dATP] | completely abolished caspase-9 activation |  |  | optimal concentration for caspase-9 activation [1]: 1 to 5 µM; Apaf-1-mediated activation of caspase-9 at higher concentrations ([1]; above the optimal range of 1-5 micromolar): reduced slightly; caspase-9 activation compared with ATP ([1]; nucleotide at 2 micromolar): greater activation of caspase-9 than did ATP
3 | CSc1nc(N)c2ncn([C@@H]3O[C@H](COP(=O)(O)OP(=O)(O)OP(=O)(O)O)[C@@H](O)[C@H]3O)c2n1 [APM, 2-methylthio-ATP] | abrogated this effect | supported Apaf-1-mediated caspase-9 activation |  | 
4 | Nc1ncnc2c1ncn2[C@@H]1O[C@H](COP(=O)(O)OP(=O)(O)OP(=O)(O)O)[C@@H](O)[C@H]1O [ATP] | completely abolished the positive effect of ATP | further drastically improved caspase-9 activity |  | 
5 | Nc1ncnc2c1ncn2[C@@H]1O[C@H](COP(=O)(O)OP(=O)(O)OP(O)(O)=S)[C@@H](O)[C@H]1O [ATP-gamma-S] |  | unable to support caspase-9 activation |  | 
6 | 94-591: recombinant Apaf-1 fragment, residues 94-591 of SEQ ID NO: 1 (protein, listed as Homo sapiens) VSSSSGKDSVSGITSYVRTVLCEGGVPQRPVVFVTRKKLVNAIQQKLSKLKGEPGWVTIHGMAGCGKSVLAAEAVRDHSLLEGCFPGGVHWVSVGKQDKSGLLMKLQNLCTRLDQDESFSQRLPLNIEEAKDRLRILMLRKHPRSLLILDDVWDSWVLKAFDSQCQILLTTRDKSVTDSVMGPKYVVPVESSLGKEKGLEILSLFVNMKKADLPEQAHSIIKECKGSPLVVSLIGALLRDFPNRWEYYLKQLQNKQFKRIRKSSSYDYEALDEAMSISVEMLREDIKDYYTDLSILQKDVKVPTKVLCILWDMETEEVEDILQEFVNKSLLFCDRNGKSFRYYLHDLQVDFLTEKNCSQLQDLHKKIITQFQRYHQPHTLSPDQEDCMYWYNFLAYHMASAKMHKELCALMFSLDWIKAKTELVGPAHLIHEFVEYRHILDEKDCAVSENFQEFLSLNGHLLGRQPFPNIVQLGLCEPETSEVYQQAKLQAKQEVDNG |  |  | ++ | 
7 | 1-589: recombinant Apaf-1 fragment, residues 1-589 of SEQ ID NO: 1 (protein, listed as Homo sapiens) MDAKARNCLLQHREALEKDIKTSYIMDHMISDGFLTISEEEKVRNEPTQQQRAAMLIKMILKKDNDSYVSFYNALLHEGYKDLAALLHDGIPVVSSSSGKDSVSGITSYVRTVLCEGGVPQRPVVFVTRKKLVNAIQQKLSKLKGEPGWVTIHGMAGCGKSVLAAEAVRDHSLLEGCFPGGVHWVSVGKQDKSGLLMKLQNLCTRLDQDESFSQRLPLNIEEAKDRLRILMLRKHPRSLLILDDVWDSWVLKAFDSQCQILLTTRDKSVTDSVMGPKYVVPVESSLGKEKGLEILSLFVNMKKADLPEQAHSIIKECKGSPLVVSLIGALLRDFPNRWEYYLKQLQNKQFKRIRKSSSYDYEALDEAMSISVEMLREDIKDYYTDLSILQKDVKVPTKVLCILWDMETEEVEDILQEFVNKSLLFCDRNGKSFRYYLHDLQVDFLTEKNCSQLQDLHKKIITQFQRYHQPHTLSPDQEDCMYWYNFLAYHMASAKMHKELCALMFSLDWIKAKTELVGPAHLIHEFVEYRHILDEKDCAVSENFQEFLSLNGHLLGRQPFPNIVQLGLCEPETSEVYQQAKLQAKQEVD |  |  | ++++ | 
8 | 1-469: recombinant Apaf-1 fragment, residues 1-469 of SEQ ID NO: 1 (protein, listed as Homo sapiens) MDAKARNCLLQHREALEKDIKTSYIMDHMISDGFLTISEEEKVRNEPTQQQRAAMLIKMILKKDNDSYVSFYNALLHEGYKDLAALLHDGIPVVSSSSGKDSVSGITSYVRTVLCEGGVPQRPVVFVTRKKLVNAIQQKLSKLKGEPGWVTIHGMAGCGKSVLAAEAVRDHSLLEGCFPGGVHWVSVGKQDKSGLLMKLQNLCTRLDQDESFSQRLPLNIEEAKDRLRILMLRKHPRSLLILDDVWDSWVLKAFDSQCQILLTTRDKSVTDSVMGPKYVVPVESSLGKEKGLEILSLFVNMKKADLPEQAHSIIKECKGSPLVVSLIGALLRDFPNRWEYYLKQLQNKQFKRIRKSSSYDYEALDEAMSISVEMLREDIKDYYTDLSILQKDVKVPTKVLCILWDMETEEVEDILQEFVNKSLLFCDRNGKSFRYYLHDLQVDFLTEKNCSQLQDLHKKIITQFQRYHQ |  |  | + | 
9 | C115S: point mutation C115S made in SEQ ID NO: 1 (protein, listed as Homo sapiens) MDAKARNCLLQHREALEKDIKTSYIMDHMISDGFLTISEEEKVRNEPTQQQRAAMLIKMILKKDNDSYVSFYNALLHEGYKDLAALLHDGIPVVSSSSGKDSVSGITSYVRTVLSEGGVPQRPVVFVTRKKLVNAIQQKLSKLKGEPGWVTIHGMAGCGKSVLAAEAVRDHSLLEGCFPGGVHWVSVGKQDKSGLLMKLQNLCTRLDQDESFSQRLPLNIEEAKDRLRILMLRKHPRSLLILDDVWDSWVLKAFDSQCQILLTTRDKSVTDSVMGPKYVVPVESSLGKEKGLEILSLFVNMKKADLPEQAHSIIKECKGSPLVVSLIGALLRDFPNRWEYYLKQLQNKQFKRIRKSSSYDYEALDEAMSISVEMLREDIKDYYTDLSILQKDVKVPTKVLCILWDMETEEVEDILQEFVNKSLLFCDRNGKSFRYYLHDLQVDFLTEKNCSQLQDLHKKIITQFQRYHQPHTLSPDQEDCMYWYNFLAYHMASAKMHKELCALMFSLDWIKAKTELVGPAHLIHEFVEYRHILDEKDCAVSENFQEFLSLNGHLLGRQPFPNIVQLGLCEPETSEVYQQAKLQAKQEVDNG |  |  |  | solubility and solution behavior (in words) [2]: without significant loss of activity or solubility
10 | Full Length Apaf-1: full-length (ca. 140-kilodalton) human Apaf-1 protein expressed in E. coli (protein, listed as Homo sapiens) MDAKARNCLLQHREALEKDIKTSYIMDHMISDGFLTISEEEKVRNEPTQQQRAAMLIKMILKKDNDSYVSFYNALLHEGYKDLAALLHDGIPVVSSSSGKDSVSGITSYVRTVLCEGGVPQRPVVFVTRKKLVNAIQQKLSKLKGEPGWVTIHGMAGCGKSVLAAEAVRDHSLLEGCFPGGVHWVSVGKQDKSGLLMKLQNLCTRLDQDESFSQRLPLNIEEAKDRLRILMLRKHPRSLLILDDVWDSWVLKAFDSQCQILLTTRDKSVTDSVMGPKYVVPVESSLGKEKGLEILSLFVNMKKADLPEQAHSIIKECKGSPLVVSLIGALLRDFPNRWEYYLKQLQNKQFKRIRKSSSYDYEALDEAMSISVEMLREDIKDYYTDLSILQKDVKVPTKVLCILWDMETEEVEDILQEFVNKSLLFCDRNGKSFRYYLHDLQVDFLTEKNCSQLQDLHKKIITQFQRYHQPHTLSPDQEDCMYWYNFLAYHMASAKMHKELCALMFSLDWIKAKTELVGPAHLIHEFVEYRHILDEKDCAVSENFQEFLSLNGHLLGRQPFPNIVQLGLCEPETSEVYQQAKLQAKQEVDNG |  |  | − | 

From US7432093B2, “Soluble, functional apoptotic protease-activating factor 1 fragments” (The Trustees of Princeton University, priority 2004, dated 2008)
